Values of other authors as cited in patent publication US20070197640A1, “Certain chemical entities, compositions, and methods” (Cytokinetics, Inc., priority 2005, published 2007).

System: A549 cells
Settings: data provided by National Cancer Institute, Developmental Therapeutic Program
In the case of `O=c1[nH]cc(F)c(=O)[nH]1` [5-fluorouracil], the GI50 is listed as 1 µM. For `COc1cccc2c1C(=O)c1c(O)c3c(c(O)c1C2=O)C[C@@](O)(C(=O)CO)C[C@@H]3O[C@H]1C[C@H](N)[C@H](O)[C@H](C)O1` [doxorubicin], the GI50 is listed as 0.063 µM. In the case of `NC(=O)NO` [hydroxyurea], the GI50 is listed as 500 µM. For `CC(=O)O[C@H]1C(=O)[C@@]2(C)[C@H]([C@H](OC(=O)c3ccccc3)[C@]3(O)C[C@H](OC(=O)[C@H](O)[C@@H](NC(=O)c4ccccc4)c4ccccc4)C(C)=C1C3(C)C)[C@]1(OC(C)=O)CO[C@@H]1C[C@@H]2O` [paclitaxel], the GI50 is listed as 0.004 µM.
